# In patent US12102640B2, “Use of dopamine and serotonin receptor antagonists for treatment in a subject with retinal degeneration” (United States Government as represented by the Department …, priority 2015, dated 2024):
# “Also recorded” adds a separate entry of the source.
# Assays:
# [1] = test system: long-latency ON-center P23H rat RGC; assay: Light responses of long-latency ON-center RGCs to a 250-μm spot (spike rasters, PSTHs); type: cell-based; conditions: sulpiride 12 µM, clozapine 5 μM, aripiprazole 5 μM, eticlopride 1 µM, MDL-100907 640 nM
# Protocol: (§1) On the day of an experiment, a rat was euthanized with sodium pentobarbital (150 mg/kg, i.p.), and the eyes were removed and hemisected under normal room light. After removal of the vitreous humour from each eye, one eyecup was transferred to a holding vessel containing bicarbonate-buffered Ames medium (Sigma-Aldrich), which was continuously gassed at room temperature with 5% CO2/95% O2. The retina of the other eyecup was gently peeled from the retinal pigment epithelium/choroid and trimmed into a square of ˜12 mm^2. The retina was then placed photoreceptor side down in a small volume (0.1 ml) chamber. The chamber was mounted on a fixed-stage upright microscope (Nikon Eclipse E600FN), and the retina superfused at 1.5 ml/min with bicarbonate-buffered Ames medium supplemented with 2 mg/ml D-(+) glucose and equilibrated with 5% CO2/95% O2. An in-line heating device (Warner Instruments) was used to maintain recording temperature at 35-36° C. The retina of the other eyecup was used later in the day.
# (§2) Electrical Recording: Action potentials (spikes) were recorded extracellularly from individual RGCs. With the aid of red light (>630 nm) that was delivered from below the chamber, the tip of a glass insulated platinum/tungsten microelectrode (0.6-1.0 MΩ impedance; Thomas Recording GmbH, Germany) was visually advanced to the retinal surface with a motor-driven micromanipulator. Extracellular potentials from RGCs were amplified and bandpass filtered at 100 to 5000 Hz by a differential amplifier (Xcell-3; FHC, Bowdoin, ME). […] Spikes from single RGCs were converted to standard transistor to transistor logic (TTL) pulses with a time-amplitude window discriminator (APM Neural Spike Discriminator, FHC). A laboratory data acquisition system (1401 Processor and Spike2 software; Cambridge Electronic Design Ltd., Cambridge, UK) was used to digitize the TTL pulses and raw spike train data.
# (§3) Light from a mercury arc lamp illuminated an aperture that was focused on the retina from above, through the 4× objective of the microscope. The image produced on the retina was either a 250-μm or 1.5-mm diameter spot, which was centered on the recorded RGC. In the light path was a 545 nm interference filter (bandwidth, 30 nm). The intensity of the unattenuated light stimulus on the retina, measured with a spectroradiometer (ILT900-R, International Light Technologies), was 8.5×10^17 photons/cm^2/s. Light intensities are expressed herein in log units relative to the unattenuated light intensity. An electromechanical shutter (Uniblitz, Rochester, NY) was used to control the stimulus duration, which was set to 100 ms in constructing intensity response curves. During recordings from RGCs, light flashes were presented with interstimulus intervals of 3-15 s (depending upon the duration and intensity of the light stimulus) to avoid any adapting effect of the previous flash. All experiments were performed in a dimly lighted room (10 lux).
# (−)-Sulpiride and clozapine were purchased from Tocris Bioscience (Minneapolis, MN). Aripiprazole was purchased from Sigma-Aldrich (St. Louis, MO). Sulpiride and clozapine were dissolved in a small amount of dimethylsulphoxide (DMSO) and diluted in physiological saline. Aripiprazole was dissolved in a small amount of 1 mM HCl and diluted in physiological saline. As in Example 1, the drug solutions were applied to the bathing solution using calibrated syringe pumps (Razel Scientific Instruments). Drugs were bath applied for ˜10 min to ensure stable responses before effects were examined. Only one cell was studied in each retina to avoid possible residual drug effects. P23H rat RGCs were identified as either ON-center or OFF-center cells from their responses to a 500-700 ms flash of a small (250-μm diameter) spot of light centered over the receptive field. ON-center cells elicit an excitatory response to the onset but not to the offset of the spot of light, whereas OFF-center cells elicit an excitatory response to the offset of the spot of light. […]
# P23H rat RGCs = assay: Light sensitivity (intensity-response functions) of RGCs in isolated P23H rat retina, extracellular recording; type: cell-based; conditions: for average lowering of light intensity (increase in light sensitivity): difference of means before vs during drug; for average lowering of light intensity (increase in light sensitivity) / number of RGCs tested whose sensitivity was increased: P23H rat RGCs; for light intensity at which the pre-drug half-maximum response was obtained in the presence of the drug, average: mean±SD of P23H rat RGCs (n=4-12), 100 ms flashes, concentration not given; for number of RGCs tested whose sensitivity was increased: one cell per retina; for increase in light sensitivity of the representative RGC / light intensity that evoked the pre-drug half-maximum response with application of the drug, representative RGC: single representative P23H rat RGC; for light intensity that evoked the pre-drug half-maximum response with application of the drug, representative RGC: bath applied ~10 min, relative to 8.5×10^17 photons/cm^2/s
# Protocol: P23H-line 1 homozygous rats (age range 22-37 weeks) were used. Breeding pairs of P23H-line 1 homozygous rats were generously donated by Dr. Matthew LaVail (University of California San Francisco, CA). The room light was kept on a 12 hr light/dark cycle using standard fluorescent lighting. During the light cycle, the illumination at the level of the cages was 100-200 lux.
# as §1, §2, §3
# (−)-Sulpiride was purchased from Tocris Bioscience (Minneapolis, MN). Sulpiride was dissolved in a small amount of dimethylsulphoxide (DMSO) and diluted in physiological saline. The drug solution was applied to the bathing solution using a calibrated syringe pump (Razel Scientific Instruments). Drug was bath applied for ˜10 min to ensure stable responses before effects were examined. Only one cell was studied in each retina to avoid possible residual drug effects.
# Intensity-response curves were generated from the responses of RGCs to 100 ms flashes of light. The light stimulus was either a 250-μm or 1.5-mm diameter spot. […]
# OFF-center P23H rat RGC = assay: Light responses of OFF-center RGCs that show a long-latency ON response; type: cell-based; conditions: 250-μm spot; sulpiride 9 µM, aripiprazole 5 µM
# Protocol: as §1, §2
# as §3, with “During recordings from RGCs, light flashes were presented with interstimulus intervals of 3-15 s (depending upon the duration and intensity of the light stimulus) to avoid any adapting effect of the previous flash. All experiments were performed in a dimly lighted room (10 lux).” left out
# [2] = test system: D2 and D3 receptors over D4 receptors; conditions: compared with sulpiride; cited from earlier work
# [3] = pooled data of MDL-100907 and SB-242084, 6 P23H rat RGCs
# [4] = eticlopride 1 μM, 6 P23H rat RGCs
# [5] = sulpiride 13 µM, L-745,870 1 µM
Structure (SMILES),effect on the OFF response [1],effect on the long-latency ON response [1],average lowering of light intensity (increase in light sensitivity) (P23H rat RGCs),"light intensity at which the pre-drug half-maximum response was obtained in the presence of the drug, average (P23H rat RGCs)",number of RGCs tested whose sensitivity was increased (P23H rat RGCs),further results
O=C1CCc2ccc(OCCCCN3CCN(c4cccc(Cl)c4Cl)CC3)cc2N1 [aripiprazole],appeared; also recorded: brought out an OFF response,still present; also recorded: did not eliminate,0.27 log unit,−3.54±0.36 log units attenuation,,effect on the OFF response (OFF-center P23H rat RGC): remained intact; also recorded: spared; effect on the delayed (long-latency) ON response (OFF-center P23H rat RGC): reduced; also recorded: eliminated
COc1cccc([C@H](O)C2CCN(CCc3ccc(F)cc3)CC2)c1OC [MDL-100907],appeared; also recorded: brought out an OFF response,abolished; also recorded: eliminated,,,,"average increase in sensitivity, pooled 5-HT2 antagonists (P23H rat RGCs; [3]): 0.25 log unit; average light sensitivity during drug, pooled 5-HT2 antagonists (P23H rat RGCs; [3]): −3.25 log units"
"CCc1cc(Cl)c(OC)c(C(=O)NC[C@@H]2CCCN2CC)c1O [eticlopride, (−)-Eticlopride]",appeared; also recorded: brought out an OFF response,abolished; also recorded: eliminated,,,,selectivity for D2 and D3 receptors over D4 receptors [2]: greater selectivity than sulpiride; average increase in light sensitivity (P23H rat RGCs; [4]): 0.31 log unit; average light sensitivity during drug (P23H rat RGCs; [4]): −3.07 log units; cells showing an increase in light sensitivity (P23H rat RGCs; [4]): All cells
"Cl.Cl.Cl.Clc1ccc(N2CCN(Cc3c[nH]c4ncccc34)CC2)cc1 [L-745,870, 3-(4-[4-Chlorophenyl]piperazin-1-yl)-methyl-1-H-pyrrolo[2,3-b]pyridinetrihydrochloride]",,,0.21 log unit,−3.31±0.54 log units attenuation,11 of the 12,"increase in light sensitivity of the representative RGC (P23H rat RGCs; [5]): 0.34 log unit; light intensity that evoked the pre-drug half-maximum response with application of the drug, representative RGC (P23H rat RGCs; [5]): −3.69 log units attenuation"
O=C(CCCN1CCC(O)(c2ccc(Cl)cc2)CC1)c1ccc(F)cc1 [haloperidol],,,0.28 log unit,−3.39±0.43 log units attenuation,all 4,
CCN1CCCC1CNC(=O)c1cc(S(=O)(=O)CC)c(N)cc1OC (stereo not drawn) [amisulpride],,,0.39 log unit,−3.67±0.30 log units attenuation,all 5,
"CCN1CCC[C@H]1CNC(=O)c1cc(S(N)(=O)=O)ccc1OC [sulpiride, (−)-Sulpiride]",appeared; also recorded: brought out an OFF response,abolished; also recorded: eliminated,0.29 log unit,−3.17±0.27 log units attenuation,8 of the 9,"shift of the intensity-response curve (P23H rat RGCs; single P23H rat RGC, sulpiride 13 µM, L-745,870 1 µM): to the left; increase in light sensitivity of the representative RGC (P23H rat RGCs; [5]): 0.44 log unit; light intensity that evoked the pre-drug half-maximum response with application of the drug, representative RGC (P23H rat RGCs; [5]): −3.47 log units attenuation; effect on the OFF response (OFF-center P23H rat RGC): remained intact; also recorded: spared; effect on the delayed (long-latency) ON response (OFF-center P23H rat RGC): reduced; also recorded: diminished"
CN1CCN(C2=Nc3cc(Cl)ccc3Nc3ccccc32)CC1 [clozapine],,,0.30 log unit,−3.56±0.55 log units attenuation,,
